The values that follow come from ChEMBL document CHEMBL1201862, “PubChem BioAssay data set” (2004).

Calls of active or inactive are those of the source.

In data set [1] the target is Cytochrome P450 2C9 (Homo sapiens, UniProt P11712).
The target of data set [2] is Cytochrome P450 2C19 (Homo sapiens, UniProt P33261). Briefly: Cytochrome panel assay with activity outcomes. Panel member name: p450-cyp2c19 Compounds with AC50 equal or less than 10 uM are considered active. It is filed as functional.
For data set [3], the target named is Cytochrome P450 3A4 (Homo sapiens, UniProt P08684).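 Also: CYP3A4 tested as one member of a cytochrome P450 panel screen.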
Data set [4] has as its target T1, Cytochrome P450 1A2 (Homo sapiens, UniProt P05177).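 Also: PubChem cytochrome P450 panel assay, CYP1A2 panel member.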
T1 sequence (P05177 whole entry): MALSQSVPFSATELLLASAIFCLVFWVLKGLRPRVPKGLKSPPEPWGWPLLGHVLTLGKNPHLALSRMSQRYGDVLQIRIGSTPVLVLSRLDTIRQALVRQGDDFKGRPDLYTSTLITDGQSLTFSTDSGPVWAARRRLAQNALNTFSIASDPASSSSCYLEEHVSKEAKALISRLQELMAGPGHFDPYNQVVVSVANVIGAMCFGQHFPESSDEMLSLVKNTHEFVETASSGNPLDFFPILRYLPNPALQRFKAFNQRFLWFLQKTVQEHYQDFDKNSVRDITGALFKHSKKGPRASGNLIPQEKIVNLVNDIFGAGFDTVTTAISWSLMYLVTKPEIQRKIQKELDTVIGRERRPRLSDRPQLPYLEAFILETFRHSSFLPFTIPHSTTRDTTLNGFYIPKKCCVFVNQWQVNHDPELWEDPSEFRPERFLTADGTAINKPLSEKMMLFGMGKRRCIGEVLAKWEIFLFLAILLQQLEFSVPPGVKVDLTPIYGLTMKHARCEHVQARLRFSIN

Data set [5] addresses Cytochrome P450 2D6 (Homo sapiens, UniProt P10635).
A short description of data set [6]: Luminescence Cell-Based Dose Retest to Confirm Inhibitors of Cancer Stem Cells. [Related pubchem assays (depositor defined):AID2717, AID2721]. The data set is classed as functional. To be noted: Homo sapiens.
Data set [7] in a line: Trypanosoma cruzi growth suppression in host cells – NIH3T3 host cells, beta-gal luminescence, confirmation (AID 2044).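 Also: intracellular parasites grown in NIH/3T3 mouse fibroblasts as host cells; luminescent beta-galactosidase reporter signal from transgenic T. cruzi replicating inside host cells; inhibitors lower the luminescence signal.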 The data set is classed as functional, cell-based.
Data set [8] is described as follows: NIH3T3 cell viability loss – ATP luminescence, mouse fibroblasts, counter-screen, dose response (AID 2010).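 Also: cells exposed to compound for about 90 hours before reading.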 The data set is classed as functional, cell-based.
The target in data set [9] is T2, Streptokinase A (Streptococcus pyogenes serotype M1, UniProt P10520).
T2 sequence (P10520 whole entry): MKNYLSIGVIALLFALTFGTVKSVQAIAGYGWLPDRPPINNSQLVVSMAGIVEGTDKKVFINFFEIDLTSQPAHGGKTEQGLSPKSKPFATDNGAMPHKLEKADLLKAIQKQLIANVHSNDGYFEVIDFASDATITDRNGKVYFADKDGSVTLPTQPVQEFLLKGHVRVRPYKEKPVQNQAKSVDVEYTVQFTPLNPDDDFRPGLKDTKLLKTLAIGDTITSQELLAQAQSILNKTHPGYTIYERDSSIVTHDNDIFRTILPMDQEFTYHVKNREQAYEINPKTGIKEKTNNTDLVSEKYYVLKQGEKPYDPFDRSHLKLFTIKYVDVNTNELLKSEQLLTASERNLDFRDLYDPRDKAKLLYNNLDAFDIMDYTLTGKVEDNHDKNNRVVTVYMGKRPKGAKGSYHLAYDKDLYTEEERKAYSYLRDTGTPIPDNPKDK
Briefly: viability-normalized secreted streptokinase activity reduction – plasminogen activation absorbance, OD405, dose response (AID 1914).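 Also: secreted streptokinase activity via plasminogen activation per viability signal from cell pellet.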 The data set is classed as functional, Streptococcus pyogenes M1 GAS.

Data set [10] relates to Streptococcus sp. 'group A'. Put plainly: Streptococcus pyogenes SK(-)GAS viability under kanamycin – luminescence, BacTiterGlo, confirmation, counter-screen for streptokinase expression inhibitor project, dose response (AID 1900). The data set is classed as functional, organism-based.
The subject of data set [11] is Streptococcus. Briefly: GAS UMAA2166 growth inhibition – luminescence, BacTiterGlo, counter-screen for streptokinase expression inhibitor project, dose response (AID 1915).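 Also: potency for reduction of bacterial viability or growth.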 The data set is classed as functional, organism-based.

Sequence of Cytochrome P450 2D6 (P10635 whole entry): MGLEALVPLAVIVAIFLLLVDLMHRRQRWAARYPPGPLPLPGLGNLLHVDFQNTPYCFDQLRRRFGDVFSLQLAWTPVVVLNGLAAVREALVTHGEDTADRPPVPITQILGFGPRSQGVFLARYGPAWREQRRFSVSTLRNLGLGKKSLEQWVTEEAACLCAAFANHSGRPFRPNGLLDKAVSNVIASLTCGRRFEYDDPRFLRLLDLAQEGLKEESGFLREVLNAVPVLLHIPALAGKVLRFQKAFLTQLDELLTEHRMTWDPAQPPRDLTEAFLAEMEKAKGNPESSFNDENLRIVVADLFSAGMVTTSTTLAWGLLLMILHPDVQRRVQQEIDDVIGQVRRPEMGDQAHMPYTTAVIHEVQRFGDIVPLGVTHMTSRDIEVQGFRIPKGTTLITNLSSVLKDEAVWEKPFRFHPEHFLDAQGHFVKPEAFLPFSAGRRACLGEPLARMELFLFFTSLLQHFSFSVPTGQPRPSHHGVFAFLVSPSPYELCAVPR
Sequence of Cytochrome P450 3A4 (P08684 whole entry): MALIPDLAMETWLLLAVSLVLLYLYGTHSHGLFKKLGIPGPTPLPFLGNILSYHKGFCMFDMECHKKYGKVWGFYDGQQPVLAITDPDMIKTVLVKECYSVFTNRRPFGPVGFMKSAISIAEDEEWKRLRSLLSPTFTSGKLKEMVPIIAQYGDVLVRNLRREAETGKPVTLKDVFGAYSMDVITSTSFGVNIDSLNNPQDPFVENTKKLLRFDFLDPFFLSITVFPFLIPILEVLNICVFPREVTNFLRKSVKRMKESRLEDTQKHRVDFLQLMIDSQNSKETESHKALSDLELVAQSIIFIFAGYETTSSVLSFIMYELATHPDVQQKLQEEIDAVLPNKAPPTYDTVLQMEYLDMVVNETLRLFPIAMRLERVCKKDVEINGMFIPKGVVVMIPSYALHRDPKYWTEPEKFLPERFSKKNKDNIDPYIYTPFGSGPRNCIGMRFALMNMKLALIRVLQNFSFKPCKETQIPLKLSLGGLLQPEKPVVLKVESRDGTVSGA
Sequence of Cytochrome P450 2C9 (P11712 whole entry): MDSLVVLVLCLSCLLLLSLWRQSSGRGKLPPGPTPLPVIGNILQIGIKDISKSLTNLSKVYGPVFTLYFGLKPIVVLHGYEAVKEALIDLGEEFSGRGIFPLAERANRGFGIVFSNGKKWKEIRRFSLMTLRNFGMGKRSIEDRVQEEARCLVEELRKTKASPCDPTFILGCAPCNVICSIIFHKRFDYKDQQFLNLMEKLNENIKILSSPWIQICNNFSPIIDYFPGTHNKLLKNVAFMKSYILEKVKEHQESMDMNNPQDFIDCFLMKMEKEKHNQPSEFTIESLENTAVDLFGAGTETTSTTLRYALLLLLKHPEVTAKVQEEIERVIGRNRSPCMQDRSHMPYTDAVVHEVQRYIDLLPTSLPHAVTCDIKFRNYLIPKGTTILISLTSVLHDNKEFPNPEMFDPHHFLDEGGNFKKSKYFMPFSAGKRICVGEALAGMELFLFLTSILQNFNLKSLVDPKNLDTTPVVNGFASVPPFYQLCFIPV
Sequence of Cytochrome P450 2C19 (P33261 whole entry): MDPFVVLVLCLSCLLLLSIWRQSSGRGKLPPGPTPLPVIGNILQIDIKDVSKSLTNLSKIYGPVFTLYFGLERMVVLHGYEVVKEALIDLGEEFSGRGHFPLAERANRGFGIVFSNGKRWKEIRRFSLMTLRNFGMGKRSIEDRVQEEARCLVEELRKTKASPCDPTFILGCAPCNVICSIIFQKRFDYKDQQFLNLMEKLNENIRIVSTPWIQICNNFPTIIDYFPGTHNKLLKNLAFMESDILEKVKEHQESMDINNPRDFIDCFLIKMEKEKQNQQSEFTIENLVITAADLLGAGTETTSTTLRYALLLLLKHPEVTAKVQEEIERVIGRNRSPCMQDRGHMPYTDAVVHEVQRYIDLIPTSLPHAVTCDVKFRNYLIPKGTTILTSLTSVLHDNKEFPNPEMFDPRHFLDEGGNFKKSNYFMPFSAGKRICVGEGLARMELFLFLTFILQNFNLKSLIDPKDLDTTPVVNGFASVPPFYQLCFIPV

On to `CCNS(=O)(=O)c1ccc(NS(C)(=O)=O)cc1`, for which the AC50 in [1] was 7.94 µM (inconclusive); in data set [2], “inconclusive”.

On to `COc1ccc(CCNC(=O)COC(=O)c2cnc(C)cn2)cc1`, for which the figures for the AC50 in data set [3], in data set [1] and in data set [4] were 22.4 µM (inconclusive), 0.00562 µM (inconclusive) and 25.1 µM (inconclusive), respectively.

With `CNC(=O)NC(=O)CSc1nnc(-c2ccco2)n1Cc1ccccc1`, the AC50 was 22.4 µM (inconclusive) in data set [3] and 35.5 µM (inconclusive) in data set [2] (read-out: AC50).

Consider `CCCS(=O)(=O)N1CCCC(C(=O)N2CCOCC2)C1` (stereo not given), for which the concentration at half-maximal activity (AC50) in [4] is 5.01 µM (inconclusive).

For the compound `CO/N=C(/CNC(=O)c1cccc(Cl)c1)c1ccc(Cl)cc1`, the AC50 in data set [5] is 25.1 µM (inconclusive).

`COC(=O)[C@@]1(Cc2ccccc2)[C@H]2c3cc(C(=O)N4CCCC4)n(Cc4nc5ccccc5[nH]4)c3C[C@H]2CN1C(=O)c1ccccc1`: the AC50 in data set [4] was 12.6 µM (inconclusive).

For `C[C@@H](CSc1ccc(Br)cc1)CN1CC[C@H](NC(=O)OCc2ccccc2)CCC1=O`, the half-maximal activity concentration (AC50) in [6] is 5.92 µM (active).

As for `O=C(Nc1ccc(Cl)cc1C(=O)c1ccccc1Cl)c1ccco1`, in data set [4], the AC50 is 2.51 µM (inconclusive).

Take `CCOC(=O)Nc1ccc(C)cc1NC(=O)OCC`: the AC50 in [1] is 25.1 µM (inconclusive); in data set [2] (read-out: AC50) it was 14.1 µM (inconclusive).

Turning to `COCOc1ccc(Br)cc1C(=O)[C@H]1O[C@H]1c1cccc(OC)c1`, in data set [5], the AC50 is 3.16 µM (inconclusive).

As for `O=C(Nc1ccc(-c2csc(-c3ccccc3)n2)cc1)c1ccccc1Cl`, the AC50 in data set [4] is 0.0708 µM (inconclusive). For the same compound, the results for the EC50 in [7] and in data set [8] were 1.57 µM (active) and 9.89 µM (active), respectively.

Consider `ON(CCc1ccncc1)Cc1ccccc1`, for which, in data set [5], the AC50 was 6.31 µM (inconclusive).

Turning to `CCC(COC(=O)NC)NC(=O)Oc1ccccc1` (stereo not given), the AC50 in data set [4] was 39.8 µM (inconclusive).

Turning to `COCC(=O)N1CCC2(CC1)CN(Cc1ccccc1OC)C2`, in data set [2] (read-out: AC50), the AC50 was 39.8 µM (inconclusive).

Regarding `O=C1[C@H]2[C@H]3[C@H](O)[C@H](O)C/C(=N/OCc4ccccc4)[C@H]3CC[C@@H]2C(=O)N1Cc1ccc2c(c1)OCO2`, the AC50 in [2] (read-out: AC50) is 2 µM (inconclusive).

Consider `COc1cc(OC)cc(C(=O)NCCNc2nc3cc(C)cc(C)c3cc2C#N)c1`, for which the AC50 in [6] is > 195 µM (inactive).

On to `Cc1cc(C(C)(C)C)c(OC(=O)[C@@H]2OC(c3ccccc3)=C[C@H]2c2ccccc2)c(C(C)(C)C)c1`, for which the AC50 in data set [6] is 5.03 µM (active).

On to `O=[N+]([O-])c1ccccc1-c1ccc(C(=S)N2CCN(c3ccccc3)CC2)o1`, for which the AC50 in data set [6] is > 195 µM (inactive).

As for `CC(C)CN=C(S)NC1CC2CCCC(C1)N2Cc1ccco1` (stereo not given), the AC50 in data set [2] (read-out: AC50) was 39.8 µM (inconclusive).

As for `Cc1cc(NC(=O)CSc2nc3ccsc3c(=O)n2Cc2ccccn2)[nH]n1`, the AC50 in data set [4] is 6.31 µM (inconclusive).

With `C/C(=N/NC(=O)c1ccc(-c2ccccc2)cc1)c1cc(O)cc(O)c1`, the AC50 in data set [6] is 2.97 µM (active).

Regarding `CCOc1ccc(NC(=O)N2CCC(C(N)=O)(N3CCCCC3)CC2)cc1`, the AC50 in data set [2] (read-out: AC50) was 8.91 µM (inconclusive).

As to `CC(C)CN(C)c1nc(N)c(C(=O)N=C(N)N)nc1Cl` [5-(N-METHYL-N-ISOBUTYL)AMILORIDE], the AC50 in data set [2] (read-out: AC50) was 31.6 µM (inconclusive).

Regarding `CC(=O)NCCNc1ncnc2ccc(-c3ccccc3Cl)cc12`, in data set [2] (read-out: AC50), the AC50 was 20 µM (inconclusive).

`COc1cc(OC)cc(-c2sc3ccc(OC)cc3c2C#CCO)c1`: the AC50 in [6] is 4.83 µM (active).

For `Cn1cc(-c2nc3cncnc3n(Cc3ccccc3Cl)c2=O)c2ccccc21`, the AC50 in data set [3] was 7.94 µM (inconclusive); in data set [4], 3.16 µM (inconclusive).

For the compound `O=C(Nc1ncc(Cc2cccc([N+](=O)[O-])c2)s1)c1ccco1`, in data set [6], the AC50 was 1.4 µM (active).

Take `O=C(c1cnn2c1NC(c1ccc(Br)cc1)CC2C(F)(F)F)N1CCN2CCCC2C1` (stereo not given): the AC50 in data set [6] was 1.81 µM (active).

Consider `COc1ccc(-c2sc3cc(OC)c(OC)cc3c2C#CC2(O)CCCCC2)cc1`, for which the AC50 in data set [6] is 1.73 µM (active).

As to `O=C1[C@@H]2[C@@H](C(=O)N1c1ccc(OCc3ccccc3)cc1)[C@@H]1c3ccccc3[C@@H]2[n+]2ccccc21`, the AC50 in data set [5] is 3.98 µM (inconclusive).

Turning to `O=C(/C=C/c1ccc(Br)cc1)NC1CCCCCC1`, the AC50 in data set [4] was 2 µM (inconclusive).

As to `CCOC(=O)N1CCC(NC(=O)C2CCN(S(=O)(=O)N3CCCC3)CC2)CC1`, the concentration at half-maximal activity (AC50) result in data set [2] is on record as “inconclusive”.

As for `O=C(O)CCCN1C(=O)/C(=C/c2cn(-c3ccccc3)nc2-c2cccs2)SC1=S`, the EC50 in data set [9] is > 150 µM (not active); in data set [10] it was 5.9 µM (active); in data set [11], 7.28 µM (active).

Take `N[C@@H](Cn1cc(F)c(=O)[nH]c1=O)C(=O)O`: the AC50 in data set [4] is 31.6 µM (inconclusive).

On to `CCCCCC1=C2CNC(CC(C)C)(C(=O)OC)C=C2C(C)C1=O` (stereo not given), for which the figures for the AC50 in data set [3], in data set [4] and in data set [2] (read-out: AC50) were 15.8 µM (inconclusive), 25.1 µM (inconclusive) and 6.31 µM (inconclusive), respectively.

Take `O=C(c1csnn1)N1CCC2(CCCN(Cc3cc(C(F)(F)F)cc(C(F)(F)F)c3)C2)CC1`: the AC50 in data set [1] is 39.8 µM (inconclusive); in [4] it was 12.6 µM (inconclusive).

Regarding `COc1cccc(-c2noc(-c3cccnc3)n2)c1`, in data set [5], the AC50 is 20 µM (inconclusive).

In the case of `C=CCn1c(SCc2ccccc2)nc2scc(-c3ccc(C)o3)c2c1=O`, the AC50 in [4] is 1.58 µM (inconclusive).

For the compound `O=C(Nc1cccc(Cl)c1N1CCCC1)c1cc2ccccc2o1`, the results for the EC50 in [9], in data set [10] and in data set [11] were 14.3 µM (active), 8.81 µM (active) and 20.5 µM (active), respectively.

For `COc1ccc(Cc2nnc(NC(=O)Cn3cnc4c3c(=O)n(C)c(=O)n4C)s2)cc1OC`, the values for the AC50 in [1] and in data set [2] (read-out: AC50) were 20 µM (inconclusive) and 28.2 µM (inconclusive), respectively.

For `COc1ccc(-c2sc3cc4c(cc3c2-c2ccc(OCCN3CCOCC3)cc2)OCO4)cc1`, in data set [6], the AC50 is 0.29 µM (active).

Take `COC(=O)[C@@]1(Cc2ccc(OC)cc2)[C@H]2c3cc(C(=O)N4CCCC4)n(CCCNc4ncc(C(F)(F)F)cc4Cl)c3C[C@H]2CN1C(=O)c1ccccc1`: the figures for the AC50 in data set [3] and in [4] were 1.26 µM (inconclusive) and 31.6 µM (inconclusive), respectively.

As to `CN1CCc2cc(Cl)c(O)cc2[C@@H](c2ccccc2)C1` [SCH-23390], in [4], the AC50 was 39.8 µM (inconclusive).

On to `CCN(CC)c1cc(C)c2cc(NC(=O)CNC(C)=O)ccc2n1`, for which the AC50 in [1] is 0.891 µM (inconclusive); in data set [2], “inconclusive”.

For `Cc1ccc2c(c1)/C(=C1\SC(N(C)c3ccc(O)cc3)=NC1=O)C(=O)N2`, the EC50 was > 150 µM (not active) in data set [9], 6.59 µM (active) in data set [10] and 16.6 µM (active) in data set [11].

As for `CC#CCCCC(=O)Nc1cc(OC)nc(OC)n1`, in [5], the AC50 is 15.8 µM (inconclusive).

For the compound `COc1ccc(C2C3=C(CC(C)(C)CC3=O)Oc3ncn(CC(C)C)c(=N)c32)cc1` (stereo not given), the AC50 in data set [1] and in data set [2] (read-out: AC50) was 39.8 µM (inconclusive) throughout.

For `Cc1cc2nc(O)c([C@H](C)C(=O)c3ccc(Cl)cc3)nc2cc1C`, the results for the AC50 in data set [4] and in data set [2] (read-out: AC50) were 0.501 µM (inconclusive) and 0.0794 µM (inconclusive), respectively.
